In patent US20100324132A1, “METHODS AND COMPOSITIONS FOR PROMOTING WOUND HEALING” (priority 2005, published 2010):

How the values were obtained:
Aeromonas caviae = assay: MIC and FIC of EDTA and neomycin, Aeromonas isolated from ulcerated fish; assay type: cell-based; details: A. caviae
Method: (§1) This example describes a method for determining the FIC values set forth in Example 4. […] Agents and Chem. pp. 210-217 (1967); and Sparks et al., Vet. Res. Comm. 18:241-249 (1994). Each of the foregoing publications are incorporated herein by reference. […] Then 0.05 ml of an 18-hour old culture of a test organism, containing […] colony-forming units (CFU) ml, were added to each well. Controls for the culture and media were included in each plate. Plates were covered and incubated at 37° C. for 18-24 hours. A numerical score or Fractional Inhibitory Concentration (FIC) index was determined. The FIC index is equal to the sum of the values of FIC for the individual drugs: An FIC index greater than 1.0 indicated an antagonistic interaction, an FIC index of 1.0 indicated addition, and an FIC index of less than or equal to 0.5 indicated synergism between the two test agents.

Aeromonas hydrophila = assay: as above; assay type: cell-based; details: A. hydrophila
Method: as §1

Aeromonas sobria = assay: as above; assay type: cell-based; details: A. sobria
Method: as §1

Staphylococcus aureus [1] = assay: Antibiotic resistance profile, disc diffusion; also: key: R = resistant; I = intermediate; S = sensitive; assay type: cell-based; details: S. aureus isolated from burn patients
Enterococcus faecalis [2] = assay: MIC/MBC and checkerboard of EDTA-Tris and neomycin; assay type: cell-based; details: in 50 mM Tris
Method: (§2) This example describes a method for determining the FIC values set forth in Example 4. […] Agents and Chem. pp. 210-217 (1967); and Sparks et al., Vet. Res. Comm. 18:241-249 (1994). Each of the foregoing publications are incorporated herein by reference.
(§3) Then 0.05 ml of an 18-hour old culture of a test organism, containing […] colony-forming units (CFU) ml, were added to each well. Controls for the culture and media were included in each plate. Plates were covered and incubated at 37° C. for 18-24 hours.
(§4) To generate isobolograms, FICs of the two test solutions were plotted individually on the x-axis and y-axis to determine the effect of combining the two test solutions on bacterial growth. A line that curves away from the zero point and the coordinates indicated antagonism. […] Goodman and Gilman, pp. 1085-1086 (Macmillan Publishing Co., New York, 1985); Sabath, L. D., Antimicrob. Agents and Chem. pp. 210-217 (1967) and incorporated herein by reference in their entireties.
(§5) A numerical score or Fractional Inhibitory Concentration (FIC) index was determined. The FIC index is equal to the sum of the values of FIC for the individual drugs:
(§6) An FIC index greater than 1.0 indicated an antagonistic interaction, an FIC index of 1.0 indicated addition, and an FIC index of less than or equal to 0.5 indicated synergism between the two test agents.
(§7) The organisms of this study were isolated from human burn patients. They included strains of methicillin resistant Staphylococcus aureus, and vancomycin resistant strains of Pseudomonas aeruginosa and Enterococcus faecalis. The bacterial isolates were propagated in or on Brain Heart Infusion broth (BHI), Mueller-Hinton Broth (MHB), blood agar (BA), Mueller-Hinton agar (MBA), enterococcus agar (EA), or 2× nutrient agar (2× NA).
(§8) 307 (pub: Am. Soc. Microbiol. Williams and Wilkins, Baltimore 1970), incorporated herein by reference in its entirety.

Staphylococcus aureus [3] = assay: MIC/MBC and checkerboard of EDTA-Tris and neomycin; assay type: cell-based; details: in 50 mM Tris
Method: as §2, §3, §4, §5, §6, §7, §8

Pseudomonas aeruginosa [4] = assay: MIC/MBC and checkerboard of EDTA-Tris and neomycin; assay type: cell-based; details: in 50 mM Tris
Method: as §2, §3, §4, §5, §6, §7, §8

Pseudomonas aeruginosa [5] = assay: Antibiotic resistance profile, disc diffusion; also: key: R = resistant; I = intermediate; S = sensitive; assay type: cell-based; details: P. aeruginosa isolated from burn patients
Enterococcus faecalis [6] = assay: Antibiotic resistance profile, disc diffusion; also: key: R = resistant; I = intermediate; S = sensitive; assay type: cell-based; details: E. faecalis isolated from burn patients
[7] = system: surface ulcers with multiple resistant pathogenic species; assay: Bath treatment of ulcerated Koi; assay type: in vivo, Koi (Cyprinus carpio); details: antibiotics injected directly into the fish before the bath treatment
Method: An immersion treatment of the infected animals of 5 to 10 minutes on alternate days over a six day period promoted healing of most ulcers.
All of the treated fish had previously been given injections of Azactam, Baytril, and Amikacin. […] Among the species of bacteria found in the ulcers of the fish were representatives of the genera Aeromonas, Proteus, Klebsiella, Staphylococcus, Streptococcus, Enterobacter and Flavobacterium.
All fish were housed in a communal “hospital tank” before treatment and moved to an isolation tank after each treatment. The temperature of the bath was adjusted to that of the hospital tank temperature, 24 C, and adequate aeration was supplied to the treatment tank. Eight of the fish had external ulcers of various dimensions. Two of the fish were dropsied.

Staphylococcus aureus [8] = assay: MIC/MBC of Tris, EDTA, cocamidopropyl betaine and silver combinations, human burn isolates; assay type: cell-based; details: S. aureus isolated from a human burn patient; x = multiple of the stock solution
Pseudomonas aeruginosa [9] = assay: as above; assay type: cell-based; details: P. aeruginosa isolated from a human burn patient; x = multiple of the stock solution
[10] = system: Staphylococcus intermedius; assay: MIC/MBC of cocamidopropyl betaine, Tris-EDTA and their combination, dog isolates; assay type: cell-based
Method: (§9) The formulation was tested against Pseudomonas aeruginosa, Proteus mirabilis, Escherichia coli, Staphylococcus intermedius, Malessezia pachydermatis, and Candida albicans.

Malassezia pachydermatis = assay: as above; assay type: cell-based
Method: as §9

Escherichia coli = assay: as above; assay type: cell-based
Method: as §9

Proteus mirabilis = assay: as above; assay type: cell-based
Method: as §9

Candida albicans = assay: as above; assay type: cell-based
Method: as §9

Pseudomonas aeruginosa [11] = assay: as above; assay type: cell-based
Method: as §9

[12] = S. intermedius from dogs, x = multiple of the 1x stock solution
[13] = M. pachydermatis from dogs, x = multiple of the 1x stock solution
[14] = E. coli isolated from a dog with otitis externa, x = multiple of the 1x stock solution
[15] = P. mirabilis from dogs, x = multiple of the 1x stock solution
[16] = C. albicans from dogs, x = multiple of the 1x stock solution
[17] = P. aeruginosa from dogs with otitis externa and pyoderma, x = multiple of the 1x stock solution

neomycin
MIC, neomycin alone (Aeromonas caviae): 12.5 mg/L
MIC, neomycin alone (Aeromonas hydrophila): 200 mg/L
MIC, neomycin alone (Aeromonas sobria): 12.5 mg/L
Antibiotic resistance profile (Staphylococcus aureus [1]): R
MBC, individually administered (Enterococcus faecalis [2]): 25000 mg/L
MBC, individually administered (Staphylococcus aureus [3]): 3130 mg/L
MBC, individually administered (Pseudomonas aeruginosa [4]): 5000 mg/L
Antibiotic resistance profile (Pseudomonas aeruginosa [5]): R
Antibiotic resistance profile (Enterococcus faecalis [6]): R

C[C@H]1[C@H](NC(=O)/C(=N\OC(C)(C)C(=O)O)c2csc(N)n2)C(=O)N1S(=O)(=O)O [Azactam]
Healing of ulcers [7]: failed to heal visible ulcers

oxacillin/methicillin
Antibiotic resistance profile (Staphylococcus aureus [1]): R
Antibiotic resistance profile (Pseudomonas aeruginosa [5]): R
Antibiotic resistance profile (Enterococcus faecalis [6]): R

NC[C@H]1O[C@H](O[C@H]2[C@H](O)[C@@H](O[C@H]3O[C@H](CO)[C@@H](O)[C@H](N)[C@H]3O)[C@H](N)C[C@@H]2N)[C@H](O)[C@@H](O)[C@@H]1O [K, kanamycin]
Antibiotic resistance profile (Staphylococcus aureus [1]): R
Antibiotic resistance profile (Pseudomonas aeruginosa [5]): R
Antibiotic resistance profile (Enterococcus faecalis [6]): R

Cc1noc(NS(=O)(=O)c2ccc(N)cc2)c1C [G, sulfisoxazole]
Antibiotic resistance profile (Staphylococcus aureus [1]): S
Antibiotic resistance profile (Pseudomonas aeruginosa [5]): R
Antibiotic resistance profile (Enterococcus faecalis [6]): R

CN(C)[C@@H]1C(O)=C(C(N)=O)C(=O)[C@@]2(O)C(O)=C3C(=O)c4c(O)cccc4[C@@](C)(O)[C@H]3C[C@@H]12 [Te, tetracycline]
Antibiotic resistance profile (Staphylococcus aureus [1]): S
Antibiotic resistance profile (Pseudomonas aeruginosa [5]): R
Antibiotic resistance profile (Enterococcus faecalis [6]): R

O=C(N[C@H](CO)[C@H](O)c1ccc([N+](=O)[O-])cc1)C(Cl)Cl [C, chloramphenicol]
Antibiotic resistance profile (Staphylococcus aureus [1]): I
Antibiotic resistance profile (Pseudomonas aeruginosa [5]): R
Antibiotic resistance profile (Enterococcus faecalis [6]): R

O=C(O)CN(CCN(CC(=O)O)CC(=O)O)CC(=O)O [EDTA, ethylenediaminetetraacetate]
MIC, EDTA in 50 mM Tris alone (Aeromonas caviae): <0.49
MIC, EDTA in 50 mM Tris alone (Aeromonas sobria): 15.6
MBC, individually administered (Enterococcus faecalis [2]): 250 mM
MBC, individually administered (Pseudomonas aeruginosa [4]): 250 mM

NCC[C@H](O)C(=O)N[C@@H]1C[C@H](N)[C@@H](O[C@H]2O[C@H](CN)[C@@H](O)[C@H](O)[C@H]2O)[C@H](O)[C@H]1O[C@H]1O[C@H](CO)[C@@H](O)[C@H](N)[C@H]1O [Amikacin]
Healing of ulcers [7]: failed to heal visible ulcers

CC[C@H]1OC(=O)[C@H](C)[C@@H](O[C@H]2C[C@@](C)(OC)[C@@H](O)[C@H](C)O2)[C@H](C)[C@@H](O[C@@H]2O[C@H](C)C[C@H](N(C)C)[C@H]2O)[C@](C)(O)C[C@@H](C)C(=O)[C@H](C)[C@@H](O)[C@]1(C)O [E, erythromycin]
Antibiotic resistance profile (Staphylococcus aureus [1]): R
Antibiotic resistance profile (Pseudomonas aeruginosa [5]): R
Antibiotic resistance profile (Enterococcus faecalis [6]): R

gentamicin [GM]
Antibiotic resistance profile (Staphylococcus aureus [1]): S
Antibiotic resistance profile (Pseudomonas aeruginosa [5]): I
Antibiotic resistance profile (Enterococcus faecalis [6]): R

CC1(C)S[C@@H]2[C@H](NC(=O)[C@H](N)c3ccccc3)C(=O)N2[C@H]1C(=O)O [Am, ampicillin]
Antibiotic resistance profile (Staphylococcus aureus [1]): R^B
Antibiotic resistance profile (Pseudomonas aeruginosa [5]): R
Antibiotic resistance profile (Enterococcus faecalis [6]): S

CCn1cc(C(=O)O)c(=O)c2ccc(C)nc21 [NA, nalidixic acid]
Antibiotic resistance profile (Staphylococcus aureus [1]): R
Antibiotic resistance profile (Pseudomonas aeruginosa [5]): R
Antibiotic resistance profile (Enterococcus faecalis [6]): R

CCN1CCN(c2cc3c(cc2F)c(=O)c(C(=O)O)cn3C2CC2)CC1 [Baytril]
Healing of ulcers [7]: failed to heal visible ulcers

[H]/N=C(/N)N[C@H]1[C@H](O)[C@@H](O)[C@H](O[C@@H]2O[C@@H](C)[C@](O)(C=O)[C@H]2O[C@@H]2O[C@@H](CO)[C@H](O)[C@@H](O)[C@@H]2NC)[C@@H](N/C(N)=N\[H])[C@@H]1O [S, streptomycin]
Antibiotic resistance profile (Staphylococcus aureus [1]): S
Antibiotic resistance profile (Pseudomonas aeruginosa [5]): R
Antibiotic resistance profile (Enterococcus faecalis [6]): R

CN[C@H](CC(C)C)C(=O)N[C@H]1C(=O)N[C@@H](CC(N)=O)C(=O)N[C@H]2C(=O)N[C@H]3C(=O)N[C@H](C(=O)N[C@H](C(=O)O)c4cc(O)cc(O)c4-c4cc3ccc4O)[C@H](O)c3ccc(c(Cl)c3)Oc3cc2cc(c3O[C@@H]2O[C@H](CO)[C@@H](O)[C@H](O)[C@H]2O[C@H]2C[C@](C)(N)[C@H](O)[C@H](C)O2)Oc2ccc(cc2Cl)[C@H]1O [Va, vancomycin]
Antibiotic resistance profile (Staphylococcus aureus [1]): S
Antibiotic resistance profile (Pseudomonas aeruginosa [5]): R
Antibiotic resistance profile (Enterococcus faecalis [6]): R

cocamidopropyl betaine
MBC (Staphylococcus aureus [8]): 0.001x
MIC (Staphylococcus aureus [8]): 0.001x
MBC (Pseudomonas aeruginosa [9]): 0.5x
MIC (Pseudomonas aeruginosa [9]): 0.25x
MBC ([10]; S. intermedius): 0.1% of stock solution
MIC ([10]; S. intermedius): 0.1% of stock solution
MBC [10, 12]: 0.001x
MIC [10, 12]: 0.001x
MBC (Malassezia pachydermatis; M. pachydermatis): 0.3% of stock solution
MIC (Malassezia pachydermatis; M. pachydermatis): 0.1% of stock solution
MBC (Malassezia pachydermatis; [13]): 0.003x
MIC (Malassezia pachydermatis; [13]): 0.001x
MBC (Escherichia coli; E. coli): 50% of stock solution
MIC (Escherichia coli; E. coli): 25% of stock solution
MBC (Escherichia coli; [14]): 0.5x
MIC (Escherichia coli; [14]): 0.25x
MBC (Proteus mirabilis; P. mirabilis): 50% of stock solution
MIC (Proteus mirabilis; P. mirabilis): 25% of stock solution
MBC (Proteus mirabilis; [15]): 0.5x
MIC (Proteus mirabilis; [15]): 0.25x
MBC (Candida albicans; C. albicans): 0.3% of stock solution
MIC (Candida albicans; C. albicans): 0.1% of stock solution
MBC (Candida albicans; [16]): 0.003x
MIC (Candida albicans; [16]): 0.001x
MBC (Pseudomonas aeruginosa [11]; P. aeruginosa): 50% of stock solution
MIC (Pseudomonas aeruginosa [11]; P. aeruginosa): 25% of stock solution
MBC (Pseudomonas aeruginosa [11]; [17]): 0.5x
MIC (Pseudomonas aeruginosa [11]; [17]): 0.25x
